Measured values: ChEMBL document CHEMBL3526148, “Cerebrospinal fluid can be used as a surrogate to assess brain exposures of breast cancer resistance protein and P-glycoprotein substrates” (Drug Metab Dispos, 2012)
One block for each compound: values may come before it.

Columns and labels:
Format in all cases: ADME, cell-based
[1] = biological target: T1, Broad substrate specificity ATP-binding cassette transporter ABCG2 (Homo sapiens, UniProt Q9UNQ0); test: Inhibition of BCRP-mediated [3H]estrone-3-sulfate transport in human Caco2 cells at 3 uM after 30 mins; conditions: caco-2, 0.5 h
T1 sequence (Q9UNQ0 whole entry): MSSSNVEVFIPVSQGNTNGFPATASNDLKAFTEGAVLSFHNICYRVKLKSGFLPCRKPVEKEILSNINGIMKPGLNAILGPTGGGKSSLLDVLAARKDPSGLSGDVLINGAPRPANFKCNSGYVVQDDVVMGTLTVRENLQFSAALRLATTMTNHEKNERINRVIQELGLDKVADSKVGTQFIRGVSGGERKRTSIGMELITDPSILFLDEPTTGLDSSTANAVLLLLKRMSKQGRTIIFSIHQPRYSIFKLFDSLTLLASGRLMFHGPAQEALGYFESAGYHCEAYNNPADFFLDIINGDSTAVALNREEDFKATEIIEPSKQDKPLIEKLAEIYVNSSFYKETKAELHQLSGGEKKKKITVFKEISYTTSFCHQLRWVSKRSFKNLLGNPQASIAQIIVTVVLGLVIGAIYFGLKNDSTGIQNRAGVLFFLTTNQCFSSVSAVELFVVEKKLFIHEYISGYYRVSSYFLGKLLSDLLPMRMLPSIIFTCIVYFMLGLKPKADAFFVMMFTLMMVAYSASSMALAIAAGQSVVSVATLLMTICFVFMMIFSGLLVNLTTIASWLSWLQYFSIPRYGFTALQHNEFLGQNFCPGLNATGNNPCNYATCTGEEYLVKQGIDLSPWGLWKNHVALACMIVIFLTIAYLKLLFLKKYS

[2] = Inhibition of P-gp-mediated [3H]-digoxin transport in human Caco2 cells at 3 uM after 30 mins; conditions: caco-2, 0.5 h
[3] = Apparent permeability from basolateral to apical side in human Caco2 cells at 5 uM after 2 hrs; conditions: Caco-2
[4] = Apparent permeability from apical to basolateral side in human Caco2 cells at 5 uM after 2 hrs; conditions: Caco-2
[5] = Inhibition of P-gp-mediated [3H]-digoxin transport in human Caco2 cells at 10 to 50 uM after 30 mins; conditions: caco-2, 0.5 h
[6] = Inhibition of P-gp-mediated [3H]-digoxin transport in human Caco2 cells at 1 uM after 30 mins; conditions: caco-2, 0.5 h
[7] = biological target: T1, Broad substrate specificity ATP-binding cassette transporter ABCG2; test: Inhibition of BCRP-mediated [3H]estrone-3-sulfate transport in human Caco2 cells at 1 uM after 30 mins; conditions: caco-2, 0.5 h

inhibition (INH) [1]: Active | inhibition (INH) [2]: Active
SMILES: COc1cc2c(cc1OC)CN(CCc1ccc(NC(=O)c3cccc4c(=O)c5cccc(OC)c5[nH]c34)cc1)CC2

SMILES: COc1ccc2c3c([nH]c2c1)[C@H](CC(C)C)N1C(=O)[C@H](CCC(=O)OC(C)(C)C)NC(=O)[C@@H]1C3
inhibition (INH) [2]: Not Active

Papp B→A at 2 h, 5 µM [3]: 9.8 ×10⁻⁶ cm/s | Papp A→B at 2 h, 5 µM [4]: 2 ×10⁻⁶ cm/s | inhibition (INH) [5]: Not Active
SMILES: O=C1CN(/N=C/c2ccc(-c3ccc([N+](=O)[O-])cc3)o2)C(O)=N1 [DANTROLENE]

inhibition (INH) [6]: Active | inhibition (INH) [7]: Not Active
SMILES: C/C=C/C[C@@H](C)C(=O)[C@H]1C(=O)N[C@@H](C(C)C)C(=O)N(C)CC(=O)N(C)[C@@H](CC(C)C)C(=O)N[C@@H](C(C)C)C(=O)N(C)[C@@H](CC(C)C)C(=O)N[C@@H](C)C(=O)N[C@H](C)C(=O)N(C)[C@@H](CC(C)C)C(=O)N(C)[C@@H](CC(C)C)C(=O)N(C)[C@@H](C(C)C)C(=O)N1C [VALSPODAR]
